Laboratory results published in patent US10703756B2, “Pyrrolo[2,3-D]pyrimidinyl, pyrrolo[2,3-B]pyrazinyl, pyrrolo[2,3-B]pyridinyl acrylamides and epoxides thereof” (Pfizer Inc., priority 2015, dated 2020).

Assays:
JAK3 enzyme [1] = biological target: T1, JAK3 enzyme (Homo sapiens, UniProt P52333); test: JAK Caliper Enzyme Assay at 1 mM ATP; format: biochemical
T1 sequence (P52333 1-1124): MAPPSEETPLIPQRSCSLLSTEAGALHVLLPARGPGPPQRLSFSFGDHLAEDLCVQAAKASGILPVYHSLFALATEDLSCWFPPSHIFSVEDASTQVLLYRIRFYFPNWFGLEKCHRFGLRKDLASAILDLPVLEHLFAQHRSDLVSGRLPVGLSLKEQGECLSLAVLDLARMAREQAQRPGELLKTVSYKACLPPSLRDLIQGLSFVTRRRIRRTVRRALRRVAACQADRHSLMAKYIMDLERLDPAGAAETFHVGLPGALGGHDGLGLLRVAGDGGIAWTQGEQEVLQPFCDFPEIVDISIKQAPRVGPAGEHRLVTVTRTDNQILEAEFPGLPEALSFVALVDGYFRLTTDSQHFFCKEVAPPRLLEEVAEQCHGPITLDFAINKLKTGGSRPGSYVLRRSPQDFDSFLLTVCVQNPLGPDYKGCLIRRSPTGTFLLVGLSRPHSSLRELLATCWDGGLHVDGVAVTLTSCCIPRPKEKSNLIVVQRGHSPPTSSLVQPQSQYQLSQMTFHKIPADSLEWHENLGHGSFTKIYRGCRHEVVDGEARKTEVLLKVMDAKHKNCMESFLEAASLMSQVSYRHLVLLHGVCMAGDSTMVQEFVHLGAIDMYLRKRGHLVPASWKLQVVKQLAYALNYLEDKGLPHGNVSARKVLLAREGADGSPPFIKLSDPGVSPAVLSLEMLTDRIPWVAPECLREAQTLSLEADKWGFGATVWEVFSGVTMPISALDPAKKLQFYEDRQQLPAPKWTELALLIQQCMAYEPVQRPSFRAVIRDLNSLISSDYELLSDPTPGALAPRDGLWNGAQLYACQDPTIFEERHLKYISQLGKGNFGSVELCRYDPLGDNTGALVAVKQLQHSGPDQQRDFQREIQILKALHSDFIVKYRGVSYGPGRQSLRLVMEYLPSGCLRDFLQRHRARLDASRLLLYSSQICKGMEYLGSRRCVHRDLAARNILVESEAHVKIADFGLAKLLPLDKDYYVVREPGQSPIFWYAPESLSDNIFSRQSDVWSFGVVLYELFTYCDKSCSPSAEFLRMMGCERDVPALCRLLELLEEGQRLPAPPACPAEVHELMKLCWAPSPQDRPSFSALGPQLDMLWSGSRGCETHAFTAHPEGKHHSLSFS
Summary of the method: (§1)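 Substrate conversion was kept within 20%-30% by adjusting enzyme and incubation for every preparation; peptide phosphorylation was quantified via on-chip mobility shift.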

[2] = test system: IL-15 induced STAT5 phosphorylation in human whole blood lymphocytes; test: HWB IL-15 Induced STAT5 Phosphorylation Assay; format: cell-based; settings: Lymphocyte, IL-15 final 50 ng/ml, read-out: HWB_IL15 pSTAT5 IC50
Method: HWB IL-15 Induced STAT5 Phosphorylation Assay
After serial dilution of the test compounds 1:2 in DMSO at desired concentration (500× of final), the compounds were further diluted in PBS (by adding 4 μL compound/DMSO in 96 μL PBS, [DMSO]=4%, 20× final). To 96-well polypropylene plates were added 90 μl HWB (heparin treated Human Whole Blood)/well, followed by 5 μl/well 4% DMSO in D-PBS or various concentrations of 20× inhibitor in 4% DMSO in D-PBS (w/o Ca^+2 or Mg^+2) to give 1× in 0.2% DMSO. After mixing and incubating for 45 minutes at 37° C., 5 μl D-PBS (unstimulated control) or 20× stocks of 5 μl human IL-15 (final concentration is 50 ng/ml) were added, and mixed three times. After incubating 15 minutes at 37° C., 1× Lyse/Fix Buffer (BD Phosflow 5× Lyse/Fix Buffer) was added to all wells at 1000 μl/well, then incubated for 20 minutes at 37° C. and spun 5 mins at 1200 rpm. After washing in 1000 μl FACS buffer 1× and spinning for 5 mins at 1200 rpm, 400 μl ice cold Perm Buffer III were added to each well. After mixing gently (1-2×) and incubating on ice for 30 minutes, spinning for 5 mins at 1200 rpm without interruption, and washing 1× in cold […] FACS buffer (D-PBS containing 0.1% BSA and 0.1% sodium azide) 250 μl/well of the desired AlexaFluor647-conjugated anti-phospho STATS antibody at 1:125 dilution in FACS buffer was added. Following incubating at 4° C. over night, all the samples were transferred to 96-well polypropylene U-bottom plate, and checked by flow cytometry gated on total lymphocytes.

JAK3 enzyme [3] = biological target: T1, JAK3 enzyme; test: JAK Caliper Enzyme Assay at 4 μM ATP; format: biochemical
Summary of the method: as §1

[4] = test system: IL-15 induced P-STAT5 in human PBMC; test: PBMC IL-15 Induced P-STAT5; format: cell-based; settings: human PBMC, IL-15 final 41 ng/mL; read-out: PBMC IL15_pSTAT5_IC50
Summary of the method: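 Flow cytometry gated on total lymphocytes measured STAT5 staining (Alexa Fluor 647 antibody, overnight, 4 °C) in fixed, methanol-permeabilised human PBMC. Cells had received compound for 15 min at 37 °C (0.2% DMSO final), followed by 41 ng/mL final human IL-15 for 15 min.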

| SMILES | IC50 (JAK3 enzyme [1]) [µM] | IC50 [2] [µM] | IC50 (JAK3 enzyme [3]) [µM] | IC50 [4] [µM] |
| --- | --- | --- | --- | --- |
| C=CC(=O)N1CCN(c2cnc3[nH]cc(C(=O)NC4CCC4)c3n2)CC1 [Example 297, 2-(4-acryloylpiperazin-1-yl)-N-cyclobutyl-5H-pyrrolo[2,3-b]pyrazine-7-carboxamide] | 0.045 | 0.718 | 0.00043 | 0.15 |
| C=CC(=O)N1CC[C@@H](Nc2cnc3[nH]cc(C(=O)NCC(F)(F)F)c3n2)[C@@H](OC)C1 [Example 317, 2-{[(3S,4R)-1-acryloyl-3-methoxypiperidin-4-yl]amino}-N-(2,2,2-trifluoroethyl)-5H-pyrrolo[2,3-b]pyrazine-7-carboxamide] | 0.077 | 0.835 | 0.000979 | 0.315 |
| C=CC(=O)N1CCC(Oc2cnc3[nH]cc(C(=O)NCCC(F)(F)F)c3n2)CC1 [Example 198, 2-[(1-acryloylpiperidin-4-yl)oxy]-N-(3,3,3-trifluoropropyl)-5H-pyrrolo[2,3-b]pyrazine-7-carboxamide] | 0.053 | 1.4 | 0.000361 | 0.25 |
| C=CC(=O)N1CCC(Nc2cnc3[nH]cc(C(=O)NCc4ccc(OC(F)F)cc4)c3n2)CC1 [Example 181, 2-[(1-acryloylpiperidin-4-yl)amino]-N-[4-(difluoromethoxy)benzyl]-5H-pyrrolo[2,3-b]pyrazine-7-carboxamide] | 0.005 | 1.82 | 0.000379 | 0.159 |
| C=CC(=O)N1CC[C@@H](Nc2cnc3[nH]cc(C(=O)NCCCC(F)(F)F)c3n2)[C@@H](OC)C1 [Example 308, 2-{[(3S,4R)-1-acryloyl-3-methoxypiperidin-4-yl]amino}-N-(4,4,4-trifluorobutyl)-5H-pyrrolo[2,3-b]pyrazine-7-carboxamide] | 0.048 | 0.775 | 0.000531 | 0.306 |
| C=CC(=O)N1CCC(Nc2cnc3[nH]cc(C(=O)NCc4ccc(OC)c(F)c4)c3n2)CC1 [Example 190, 2-[(1-acryloylpiperidin-4-yl)amino]-N-(3-fluoro-4-methoxybenzyl)-5H-pyrrolo[2,3-b]pyrazine-7-carboxamide] | 0.007 | 0.619 | 0.000193 | 0.0969 |
| C=CC(=O)N1CCN(c2cnc3[nH]cc(C(=O)NCCC(F)(F)F)c3n2)C[C@@H]1CC(C)C [Example 329, 2-[(3S)-4-acryloyl-3-(2-methylpropyl)piperazin-1-yl]-N-(3,3,3-trifluoropropyl)-5H-pyrrolo[2,3-b]pyrazine-7-carboxamide] | 0.06 | 6.29 | 0.000587 | 0.247 |
| C=CC(=O)N1CCN(c2cnc3[nH]cc(C(=O)NC4CCCC4)c3n2)CC1 (racemic) [Example 292, Racemic-2-(4-acryloylpiperazin-1-yl)-N-cyclopentyl-5H-pyrrolo[2,3-b]pyrazine-7-carboxamide] | 0.017 | 0.841 | 0.000315 | 0.0277 |
| C=CC(=O)N1CCN(c2cnc3[nH]cc(C(=O)N[C@H](CC)CC#N)c3n2)CC1 [Example 315, 2-(4-acryloylpiperazin-1-yl)-N-[(2R)-1-cyanobutan-2-yl]-5H-pyrrolo[2,3-b]pyrazine-7-carboxamide] | 0.026 | 0.211 | 0.000348 | 0.0749 |
| C=CC(=O)N1CCC(Nc2cnc3[nH]cc(C(=O)NCc4sc(C(F)(F)F)nc4C)c3n2)CC1 [Example 180, 2-[(1-acryloylpiperidin-4-yl)amino]-N-{[4-methyl-2-(trifluoromethyl)-1,3-thiazol-5-yl]methyl}-5H-pyrrolo[2,3-b]pyrazine-7-carboxamide] | 0.012 | 0.944 | 0.000481 | 0.204 |

The next lines start with results.

| IC50 (JAK3 enzyme [1]) [µM] | IC50 [2] [µM] | IC50 (JAK3 enzyme [3]) [µM] | SMILES | IC50 [4] [µM] |
| --- | --- | --- | --- | --- |
| 0.045 | 1.97 | 0.000287 | C=CC(=O)N1CCN(c2cnc3[nH]cc(C(=O)NCC(C)(C)C)c3n2)C[C@@H]1CC(C)C [Example 330, 2-[(3S)-4-acryloyl-3-(2-methylpropyl)piperazin-1-yl]-N-(2,2-dimethylpropyl)-5H-pyrrolo[2,3-b]pyrazine-7-carboxamide] | 0.122 |
| 0.056 | 0.704 | 0.00105 | C=CC(=O)N1CC[C@@H](Nc2cnc3[nH]cc(C(=O)N[C@@H](C)COC)c3n2)[C@@H](OC)C1 [Example 312, 2-{[(3S,4R)-1-acryloyl-3-methoxypiperidin-4-yl]amino}-N-[(2S)-1-methoxypropan-2-yl]-5H-pyrrolo[2,3-b]pyrazine-7-carboxamide] | 0.31 |
| 0.074 | 1.74 | 0.0005 | C=CC(=O)N1CCC(Oc2cnc3[nH]cc(C(=O)NCCOC)c3n2)CC1 [Example 211, 2-[(1-acryloylpiperidin-4-yl)oxy]-N-(2-methoxyethyl)-5H-pyrrolo[2,3-b]pyrazine-7-carboxamide] | 0.395 |
| 0.044 | 3.03 | 0.000431 | C=CC(=O)N1CCC(C)(Nc2cnc3[nH]cc(C(=O)NCC(C)C)c3n2)CC1 [Example 301, 2-[(1-acryloyl-4-methylpiperidin-4-yl)amino]-N-(2-methylpropyl)-5H-pyrrolo[2,3-b]pyrazine-7-carboxamide] | 0.387 |
| 0.082 | 1.39 | 0.000888 | C=CC(=O)N1CC[C@@H](Nc2cnc3[nH]cc(C(=O)NCC(C)CC(F)(F)F)c3n2)[C@@H](OC)C1 (mixture of isomers) [Example 269, Racemic-2-{[(3S,4R)-1-acryloyl-3-methoxypiperidin-4-yl]amino}-N-(4,4,4-trifluoro-2-methylbutyl)-5H-pyrrolo[2,3-b]pyrazine-7-carboxamide] | 0.22 |
| 0.009 | 0.778 | 0.000484 | C=CC(=O)N1CCC(Nc2cnc3[nH]cc(C(=O)NCc4ccc(OC)cc4)c3n2)CC1 [Example 191, 2-[(1-acryloylpiperidin-4-yl)amino]-N-(4-methoxybenzyl)-5H-pyrrolo[2,3-b]pyrazine-7-carboxamide] | 0.137 |
| 0.005 | 0.637 | 0.000393 | C=CC(=O)N1CCC(Nc2cnc3[nH]cc(C(=O)NCC4CCC4)c3n2)CC1 [Example 193, 2-[(1-acryloylpiperidin-4-yl)amino]-N-(cyclobutylmethyl)-5H-pyrrolo[2,3-b]pyrazine-7-carboxamide] | 0.0684 |
